The results in this text go back to patent US10604555B2, “GIP derivatives and uses thereof” (priority 2018, dated 2020).

*1 amine or outer side, *2 acyl side, *3 side chain or, on linkers, in order; H or OH if unused. Where a SMILES comes first, the peptide text is derived from it. Where no end group is shown, it is not given here. Side-chain parts run from the residue outwards. [ ]: non-standard residue; d: D form. The star is where a group is joined. X1 = O=C(O)CCCCCCCCCCCCCCCCCCC(=O)NCC1CCC(C(=O)*)CC1; C18 diacid = O=C(O)CCCCCCCCCCCCCCCCC(=O)*; γGlu = O=C(O)[C@H](CCC(=O)[*:2])N[*:1]; Nle = CCCC[C@H](N)C(=O)O; AEEA = NCCOCCOCC(=O)O; Aib = CC(C)(N)C(=O)O A value given as a limit tells only on which side of the number the result lay.

Holding throughout (assay type): physicochemical
A short description of data set [1]: ThT fibrillation assay (physical stability). The conditions noted are these: 250 μM, pH 7.4, 37° C., 45 hours of incubation. As for the experimental part:
The Thioflavin T assay was performed as outlined in Schlein (2017), AAPS J, 19(2), 397-408.
This has traditionally been measured by visual inspection of the sample. However, that kind of measurement is very cumbersome and depending on the observer. Therefore, the application of a small molecule indicator probe is much more advantageous. Thioflavin T (ThT) is such a probe and has a distinct fluorescence signature when binding to fibrils [Naiki et al. (1989) Anal. Biochem. 177, 244-249; LeVine (1999) Methods. Enzymol. 309, 274-284].
The time course for fibril formation can be described by a sigmoidal curve with the following expression [Nielsen et al. (2001) Biochemistry 40, 6036-6046]:
Here, F is the ThT fluorescence at the time t. The constant t0 is the time needed to reach 50% of maximum fluorescence. The two important parameters describing fibril formation are the lag-time calculated by t0−2τ and the apparent rate constant kapp 1/τ.
Few of those intermediates nucleate to form a template onto which further intermediates may assembly and the fibrillation proceeds. The lag-time corresponds to the interval in which the critical mass of nucleus is built up and the apparent rate constant is the rate with which the fibril itself is formed.
Samples are prepared freshly before each assay. The drug substance was solved with 250 μM of the GIP derivative in 8 mM phosphate, 14 mg/mL propylene glycol, 58 mM phenol, pH 7.4. The pH of the sample was adjusted to the desired value using appropriate amounts of concentrated NaOH and HCl. Thioflavin T was added to the samples from a stock solution in H2O to a final concentration of 1 μM.
Sample aliquots of 200 μl were placed in each well of a 96 well microtiter plate (Packard OptiPlate™-96, white polystyrene). Four replica of each sample (corresponding to one test condition) was placed in one column of wells. The plate was sealed with Scotch Pad (Qiagen).
Incubation, shaking and measurement of the ThT fluorescence emission were done in a Fluoroskan Ascent FL fluorescence platereader (Thermo Labsystems). […] Fluorescence measurement was done using excitation through a 444 nm filter and measurement of emission through a 485 nm filter.
Each run was initiated by incubating the plate at the assay temperature for 10 min. The plate was measured every 20 minutes for a desired period of time. Between each measurement, the plate was shaken and heated as described.
After completion of the ThT assay the replica of each sample was pooled and centrifuged at 20000 rpm for 30 minutes at 18° C. The supernatant was filtered through a 0.22 μm filter and an aliquot was transferred to a HPLC vial. The concentration of the filtered sample relative to the initial sample (in percentage) was reported as the recovery.
The measurement points were saved in Microsoft Excel format for further processing and curve drawing and fitting was performed using GraphPad Prism. […] The data points were a mean of the four replica and shown with standard deviation error bars. Only data obtained in the same experiment (i.e. samples on the same plate) were presented in the same graph ensuring a relative measure of fibrillation between experiments.
The data set may be fitted to Eq. (1).

Data set [2] is described as follows: Dynamic Light Scattering Stability Index (DLS-SI). The conditions noted are these: 250 μM, pH 7.4, 4 weeks at 25° C.
The nature of data set [3]: Chemical stability: HMWP formation by SEC-MS. Conditions: 37° C., 4 weeks, 250 μM, pH 7.4. The procedure:
The aim of this study is to determine the chemical stability of GIP derivative compositions. As a measure of stability of the GIP derivative composition, the formation of high molecular weight peptide formation (% HMWP) as a function of time was analysed by size-exclusion chromatography (SEC-MS). Further, the purity loss of the GIP derivative compositions was measured by LCMS. Samples for chemical stability assays were freshly prepared before each assay. […] The pH of the sample was adjusted to the desired value using appropriate amounts of concentrated NaOH and HCl. […] Formation of covalent oligomers (HMWPs) was analysed and identified by a SEC-MS method. […] The LC system was coupled to both a TUV detector operated at 215 nm, 10 Hz and a high resolution QToF mass spectrometer from Waters (Synapt G2S) operated in positive ion mode and m/z range of 100 to 4000 with normal resolution setting. Lock mass correction against Leu-Enkephalin was done every 31 sec. Spectra were processed in MassLynx version 4.1 and MaxEnt deconvoluted.
(In general: In gel filtration, larger molecules generally elute earlier.)

Data set [4] can be described thus: Chemical stability: purity loss by LCMS. The conditions noted are these: 37° C., 4 weeks, 250 μM, pH 7.4. The procedure:
The aim of this study is to determine the chemical stability of GIP derivative compositions. As a measure of stability of the GIP derivative composition, the formation of high molecular weight peptide formation (% HMWP) as a function of time was analysed by size-exclusion chromatography (SEC-MS). Further, the purity loss of the GIP derivative compositions was measured by LCMS. Samples for chemical stability assays were freshly prepared before each assay. […] The pH of the sample was adjusted to the desired value using appropriate amounts of concentrated NaOH and HCl. […] The column oven was kept at 55° C. […] The solvents were pumped from a binary solvent manager system and mixed on the high pressure side in a mixer with a volume of 50 μl. The gradient and flow can be seen in table 4: [table] A Flow-through-needle auto sampler at 8° C. was used to inject 1 μl of each sample. The effluent passed through a tunable UV detector (TUV) tuned to 215 nm. The outlet from the UV detector passed to the electrospray source of the mass spectrometer. The capillary was held at 3 kV and dry nitrogen gas was purged at a flow of 750 I/h and a temperature of 250° C. The source block was kept at 120° C. and the large bore cone was flushed with nitrogen at 50 I/h with standard electrode potentials on the rest of the instrument. The MS was operated in high resolution mode with a nominal resolution of 35000. The ToF analyser was operated in ADC mode with an m/z window from 100-2000.

In the case of `CCCC[C@H](NC(=O)[C@H](C)NC(=O)[C@@H](NC(=O)[C@H](CO)NC(=O)[C@H](Cc1ccc(O)cc1)NC(=O)[C@H](CC(=O)O)NC(=O)[C@H](CO)NC(=O)[C@@H](NC(=O)[C@H](Cc1ccccc1)NC(=O)[C@@H](NC(=O)CNC(=O)[C@H](CCC(=O)O)NC(=O)C(C)(C)NC(=O)[C@@H](N)Cc1ccc(O)cc1)[C@@H](C)O)[C@@H](C)CC)[C@@H](C)CC)C(=O)N[C@@H](CC(=O)O)C(=O)N[C@@H](CCCCN)C(=O)N[C@H](C(=O)N[C@@H](CCCNC(=N)N)C(=O)N[C@@H](CCC(N)=O)C(=O)N[C@@H](CCC(=O)O)C(=O)N[C@@H](CC(=O)O)C(=O)N[C@@H](Cc1ccccc1)C(=O)N[C@H](C(=O)N[C@@H](CCCCNC(=O)CC[C@H](NC(=O)CC[C@H](NC(=O)CC[C@H](NC(=O)C1CCC(CNC(=O)CCCCCCCCCCCCCCCCCCC(=O)O)CC1)C(=O)O)C(=O)O)C(=O)O)C(=O)N[C@@H](Cc1c[nH]c2ccccc12)C(=O)N[C@@H](CC(C)C)C(=O)N[C@@H](CC(C)C)C(=O)N[C@@H](C)C(=O)N[C@@H](CCC(N)=O)C(=O)N[C@@H](CCCCN)C(=O)NCC(=O)O)C(C)C)[C@@H](C)CC` (stereo partly drawn) [Compound 10, N{Epsilon-24}-[(4S)-4-carboxy-4-[[(4S)-4-carboxy-4-[[(4S)-4-carboxy-4-[[4-[(19-carboxynonadecanoylamino)methyl]cyclohexanecarbonyl]amino]butanoyl]amino]-butanoyl]amino]butanoyl]-[Aib2,Nle14,Arg18,Glu20,Lys24]-hGIP(1-31)] (H-Y[Aib]EGTFISDYSIA[Nle]DKIRQEDFVK([γGlu-γGlu-γGlu-X1])WLLAQKG-OH; N-terminus and C-terminus assumed), the “ThT Assay Lag time” value in data set [1] was over 45 h. Also, in data set [2], the “DLS-SI Dimensionless” value is reported as 1.7 and the DLS-SI precipitates entry is on record as “No”. The “HMWP formation (%/month)” value in data set [3] was found to be 1.50 %/month. For the same molecule, the “Purity loss (%/month)” value in data set [4] amounted to 4.80 %/month.

Take `CCCC[C@H](NC(=O)[C@H](C)NC(=O)[C@@H](NC(=O)[C@H](CO)NC(=O)[C@H](Cc1ccc(O)cc1)NC(=O)[C@H](CC(=O)O)NC(=O)[C@H](CO)NC(=O)[C@@H](NC(=O)[C@H](Cc1ccccc1)NC(=O)[C@@H](NC(=O)CNC(=O)[C@H](CCC(=O)O)NC(=O)C(C)(C)NC(=O)[C@@H](Cc1ccc(O)cc1)NC(C)=O)[C@@H](C)O)[C@@H](C)CC)[C@@H](C)CC)C(=O)N[C@@H](CC(=O)O)C(=O)N[C@@H](CCCCN)C(=O)N[C@H](C(=O)N[C@@H](Cc1c[nH]cn1)C(=O)N[C@@H](CCC(N)=O)C(=O)N[C@@H](CCC(N)=O)C(=O)N[C@@H](CC(=O)O)C(=O)N[C@@H](Cc1ccccc1)C(=O)N[C@H](C(=O)N[C@@H](CCCCNC(=O)CC[C@H](NC(=O)CC[C@H](NC(=O)CC[C@H](NC(=O)C1CCC(CNC(=O)CCCCCCCCCCCCCCCCCCC(=O)O)CC1)C(=O)O)C(=O)O)C(=O)O)C(=O)N[C@@H](Cc1c[nH]c2ccccc12)C(=O)N[C@@H](CC(C)C)C(=O)N[C@@H](CC(C)C)C(=O)N[C@@H](C)C(=O)N[C@@H](CCC(N)=O)C(=O)N[C@@H](CCCCN)C(=O)N1CCC[C@H]1C(N)=O)C(C)C)[C@@H](C)CC` (stereo partly drawn) [Compound 32, N{1}-acetyl,N{Epsilon-24}-[(4S)-4-carboxy-4-[[(4S)-4-carboxy-4-[[(4S)-4-carboxy-4-[[4-[(19-carboxynonadecanoylamino)methyl]cyclohexanecarbonyl]amino]butanoyl]-amino]butanoyl]amino]butanoyl]-[D-Tyr1,Aib2,Nle14,Lys24,Pro31]-hGIP(1-31) amide] (Ac-[dY][Aib]EGTFISDYSIA[Nle]DKIHQQDFVK([γGlu-γGlu-γGlu-X1])WLLAQKP-NH2): the “ThT Assay Lag time” value in data set [1] is over 45 h. Besides, in data set [2], the “DLS-SI Dimensionless” value is listed as 1.7 and the DLS-SI precipitates entry is on record as “No”. The “HMWP formation (%/month)” value in data set [3] worked out at 0.66 %/month. In addition, the “Purity loss (%/month)” value in data set [4] is 2.80 %/month.

Turning to “Y[Aib]EGTFISDYSIALDKIHQQDFVK([AEEA-AEEA-γGlu-C18 diacid])WLLAQKGKKNDWKHNITQ [Compound 45, N{Epsilon-24}-[2-[2-[2-[[2-[2-[2-[[(4S)-4-carboxy-4-(17-carboxyheptadecanoylamino)butanoyl]amino]ethoxy]ethoxy]acetyl]amino]ethoxy]ethoxy]acetyl]-[Aib2,Leu14,Lys24]-hGIP]”, the “ThT Assay Lag time” value in data set [1] is on record as over 45 h. For the same molecule, in data set [2], the “DLS-SI Dimensionless” value came out at 6.7 and the DLS-SI precipitates result is “No”. Moreover, the “HMWP formation (%/month)” value in data set [3] came out at 8.17 %/month. In addition, the “Purity loss (%/month)” value in data set [4] was found to be 47.22 %/month.
